Assay results: patent publication US12509431B2, “1,4-dihydroquinazolinone compounds and uses thereof” (Edgewise Therapeutics, Inc., priority 2022, dated 2025)

Legend:
Assay type in all cases: biochemical
Settings in all cases: Table 8
[1] = test system: Rabbit Skeletal myofibrils (rabbit psoas muscle); test: Myofibril ATPase assay (PK/LDH NADH-coupled), skeletal myofibrils
Summary of the method: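 Rabbit psoas myofibrils in pCa (PIPES/CaCl2/EGTA, pH 7.0) buffer; ADP coupled via PK/LDH to NADH loss, read at 340 nm every 1.5–2 min for 75 min. Slopes normalized to vehicle (100%) and fit to 4-parameter logistic for EC25, plus EC50 for inhibitors.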

[2] = biological target: T1, Porcine Ventricle myofibrils (left ventricle of Yucatan minipigs) (Sus scrofa, UniProt P79293); test: Myofibril ATPase assay (PK/LDH NADH-coupled), ventricle myofibrils
T1 construct: Myofibrils from porcine cardiac muscle was isolated from the left ventricle of Yucatan minipigs; tissue Exemplar Genetics; host or cells: left ventricle of Yucatan minipigs
Summary of the method: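 Yucatan minipig left-ventricle myofibrils; ATPase measured by PK/LDH-coupled NADH loss at 340 nm, read every 1.5-2 min for 75 min. Slopes normalized to vehicle (100%) and fit to 4-parameter logistic model; EC25 and, for inhibitors, EC50 calculated.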

Porcine Atria myofibrils = test: Myofibril ATPase assay (PK/LDH NADH-coupled), atria myofibrils
Summary of the method: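 Porcine atrial myofibril ATPase followed via PK/LDH-coupled NADH depletion, absorbance at 340 nm read every 1.5-2 min over 75 min. Slopes (mAU/min) normalized to vehicle as 100% and fit to a 4-parameter logistic; EC25% derived, plus EC50% for inhibitors.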

T1 sequence (P79293 whole entry): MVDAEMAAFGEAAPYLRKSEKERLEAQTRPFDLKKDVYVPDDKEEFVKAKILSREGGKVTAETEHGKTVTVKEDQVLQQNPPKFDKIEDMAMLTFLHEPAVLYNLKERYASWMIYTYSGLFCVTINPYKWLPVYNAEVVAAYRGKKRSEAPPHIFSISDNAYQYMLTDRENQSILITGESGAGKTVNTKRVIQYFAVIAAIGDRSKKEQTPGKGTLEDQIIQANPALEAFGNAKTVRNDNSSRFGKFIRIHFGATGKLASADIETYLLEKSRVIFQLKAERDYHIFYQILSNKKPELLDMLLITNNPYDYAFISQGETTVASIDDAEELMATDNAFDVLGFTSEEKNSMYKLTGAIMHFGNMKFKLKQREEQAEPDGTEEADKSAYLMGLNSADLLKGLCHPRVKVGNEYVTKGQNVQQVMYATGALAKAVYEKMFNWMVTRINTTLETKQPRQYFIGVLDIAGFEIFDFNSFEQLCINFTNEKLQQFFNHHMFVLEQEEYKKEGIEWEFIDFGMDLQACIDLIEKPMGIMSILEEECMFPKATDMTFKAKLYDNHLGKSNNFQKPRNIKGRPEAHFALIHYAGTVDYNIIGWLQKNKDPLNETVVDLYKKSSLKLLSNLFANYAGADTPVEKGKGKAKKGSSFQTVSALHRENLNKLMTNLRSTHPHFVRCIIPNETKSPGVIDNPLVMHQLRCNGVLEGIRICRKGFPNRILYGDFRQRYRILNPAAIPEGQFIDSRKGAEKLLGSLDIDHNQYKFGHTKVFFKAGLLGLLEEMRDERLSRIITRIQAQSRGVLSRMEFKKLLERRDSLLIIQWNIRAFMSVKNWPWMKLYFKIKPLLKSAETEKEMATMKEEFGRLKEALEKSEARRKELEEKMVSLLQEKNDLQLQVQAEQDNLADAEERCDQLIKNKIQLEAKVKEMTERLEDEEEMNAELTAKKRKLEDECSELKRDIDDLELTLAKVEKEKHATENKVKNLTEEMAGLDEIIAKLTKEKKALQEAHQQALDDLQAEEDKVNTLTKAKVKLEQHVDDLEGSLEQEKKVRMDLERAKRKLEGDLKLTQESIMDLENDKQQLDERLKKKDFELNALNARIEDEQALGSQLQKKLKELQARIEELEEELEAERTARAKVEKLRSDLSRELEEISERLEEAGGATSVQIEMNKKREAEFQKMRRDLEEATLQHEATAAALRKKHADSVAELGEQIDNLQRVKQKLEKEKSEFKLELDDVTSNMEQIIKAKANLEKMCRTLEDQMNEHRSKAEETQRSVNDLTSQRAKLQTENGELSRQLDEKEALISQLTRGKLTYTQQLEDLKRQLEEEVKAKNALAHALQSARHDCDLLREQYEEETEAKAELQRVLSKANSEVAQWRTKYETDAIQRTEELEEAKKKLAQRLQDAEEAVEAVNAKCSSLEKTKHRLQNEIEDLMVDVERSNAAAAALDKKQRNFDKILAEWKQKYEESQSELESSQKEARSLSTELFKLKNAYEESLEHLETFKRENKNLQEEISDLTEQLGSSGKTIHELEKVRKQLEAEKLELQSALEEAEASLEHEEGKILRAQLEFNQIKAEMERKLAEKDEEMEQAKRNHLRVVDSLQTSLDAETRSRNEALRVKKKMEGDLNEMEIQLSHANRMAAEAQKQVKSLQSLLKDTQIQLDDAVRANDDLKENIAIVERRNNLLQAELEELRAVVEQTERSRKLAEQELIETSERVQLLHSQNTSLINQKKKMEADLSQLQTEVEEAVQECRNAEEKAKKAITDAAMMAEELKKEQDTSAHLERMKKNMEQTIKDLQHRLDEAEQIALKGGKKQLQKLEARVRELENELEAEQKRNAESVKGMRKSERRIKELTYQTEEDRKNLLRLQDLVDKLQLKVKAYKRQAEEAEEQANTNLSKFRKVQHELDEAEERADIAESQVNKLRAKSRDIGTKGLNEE

Row | Structure (SMILES) | Rabbit Psoas IC25 [1] [µM] | Porcine Ventricle IC25 [2] [µM] | Porcine Atria IC25 (Porcine Atria myofibrils) [µM]
1 | N#Cc1cnc2c(c1)OC[C@H]2NC(=O)CN1Cc2c(ccc(F)c2F)NC1=O [Compound B64] | 0.7773 | 0.5798 | 0.52
2 | CC(C)C[C@@H](C(=O)N[C@H](C)c1ccc(F)cc1F)N1Cc2cc(F)ccc2NC1=O [Compound B66] | 100 | 100 | 100.00
3 | Cc1cc([C@@H](C)NC(=O)CN2Cc3c(ccc(F)c3F)NC2=O)ncc1F [Compound B68] | 58.62 | 1.168 | 2.03
4 | Cc1cc(C(C)NC(=O)CN2Cc3c(ccc(F)c3F)NC2=O)ncc1Cl (stereo not drawn) [Compound B70] | 1.912 | 1.114 | 0.35
5 | Cc1noc([C@@H](C)NC(=O)CN2Cc3c(ccc(F)c3F)NC2=O)n1 [Compound B71] | 100 | 40.66 | 43.18
6 | Cc1noc([C@H](C)NC(=O)CN2Cc3c(ccc(F)c3F)NC2=O)n1 [Compound B72] | 1.903 | 100 | 2.25
7 | C[C@@H](NC(=O)CN1Cc2c(ccc(F)c2F)NC1=O)c1cc2c(cn1)OCCN2C [Compound B73] | 23.3 | 2.134 | 1.22
8 | O=C(CN1Cc2c(ccc(F)c2F)NC1=O)N[C@@H]1COCc2cc(F)ccc21 [Compound B75] | 0.09136 | 0.0144 | 0.02
9 | CC(NC(=O)CN1Cc2c(ccc(F)c2F)NC1=O)c1ncc(C#N)cc1F (stereo not drawn) [Compound B77] | 0.0488 | 0.0768 | 0.04
10 | CC(NC(=O)CN1Cc2cc(F)ccc2NC1=O)c1ccc(C#N)cc1F (stereo not drawn) [Compound B78] | 0.0417 | 0.1091 | 0.04
11 | COc1cc(C#N)ncc1[C@@H](C)NC(=O)CN1Cc2c(ccc(F)c2F)NC1=O [Compound B79] | 0.2662 | 0.4454 | 0.04
12 | COc1cc(C#N)ncc1[C@H](C)NC(=O)CN1Cc2c(ccc(F)c2F)NC1=O [Compound B80] | 8.828 | 2.778 | 0.06
13 | C[C@@H](NC(=O)CN1Cc2c(ccc(F)c2F)NC1=O)c1ncc(Cl)cc1F [Compound B81] | 5.776 | 0.4092 | 0.09
14 | C[C@H](NC(=O)CN1Cc2c(ccc(F)c2F)NC1=O)c1ncc(Cl)cc1F [Compound B82] | 0.0183 | 0.0561 | 0.03
15 | Cc1cc(C#N)ncc1[C@@H](C)NC(=O)CN1Cc2c(ccc(F)c2F)NC1=O [Compound B83] | 0.0214 | 0.0519 | 0.04
16 | C[C@@H](NC(=O)CN1Cc2c(ccc(F)c2F)NC1=O)c1nc(-c2ccc(F)cn2)no1 [Compound B85] | 4.582 | 28.59 | 0.39
17 | C[C@H](NC(=O)CN1Cc2c(ccc(F)c2F)NC1=O)c1nc(-c2ccc(F)cn2)no1 [Compound B86] | 100 | 100 | 100.00
18 | O=C(CN1Cc2c(ccc(F)c2F)NC1=O)N[C@H]1COc2ccc(F)cc2C1 [Compound B88] | 100 | 2.339 | 0.46
19 | N#Cc1cnc2c(c1)CC[C@H]2NC(=O)CN1Cc2c(ccc(F)c2F)NC1=O [Compound B89, N-[(7R)-3-Cyano-5H,6H,7H-cyclopenta[b]pyridin-7-yl]-2-(5,6-difluoro-2-oxo-1,4-dihydroquinazolin-3-yl)acetamide] | 0.07847 | 0.2469 | 0.07

Results, then the molecule that gave them:

Row | Rabbit Psoas IC25 [1] [µM] | Porcine Ventricle IC25 [2] [µM] | Porcine Atria IC25 (Porcine Atria myofibrils) [µM] | Structure (SMILES)
20 | 100 | 100 | 10.98 | N#Cc1cnc2c(c1)CC[C@@H]2NC(=O)CN1Cc2c(ccc(F)c2F)NC1=O [Compound B90]
21 | 0.3913 | 0.783 | 0.14 | C[C@@H](NC(=O)CN1Cc2c(ccc(F)c2F)NC1=O)c1cnc(C#N)cn1 [Compound B91]
22 | 0.01909 | 0.05126 | 0.03 | C[C@H](NC(=O)CN1Cc2c(ccc(F)c2F)NC1=O)c1cnc(C#N)cn1 [Compound B92]
23 | 11.45 | 5.574 | 1.26 | C[C@@H](NC(=O)CN1Cc2c(ccc(F)c2F)NC1=O)c1ccc(Cl)cn1 [Compound B93]
24 | 0.1294 | 0.5438 | 0.09 | C[C@H](NC(=O)CN1Cc2c(ccc(F)c2F)NC1=O)c1ccc(Cl)cn1 [Compound B94]
25 | 100 | 100 | 1.56 | C[C@@H](NC(=O)CN1Cc2c(ccc(F)c2F)NC1=O)c1nnc(-c2ccccc2F)s1 [Compound B95]
26 | 21.88 | 100 | 1.91 | C[C@H](NC(=O)CN1Cc2c(ccc(F)c2F)NC1=O)c1nnc(-c2ccccc2F)s1 [Compound B96]
27 | 8.892 | 4.796 | 1.43 | C[C@@H](NC(=O)CN1Cc2c(ccc(F)c2F)NC1=O)c1nnc2c(Cl)cc(C(F)(F)F)cn12 [Compound B97]
28 | 93.47 | 72.38 | 100.00 | C[C@H](NC(=O)CN1Cc2c(ccc(F)c2F)NC1=O)c1nnc2c(Cl)cc(C(F)(F)F)cn12 [Compound B98]
29 | 100 | 100 | 0.70 | C[C@@H](NC(=O)CN1Cc2c(ccc(F)c2F)NC1=O)c1ccncc1F [Compound B99]
30 | 0.1246 | 0.7409 | 0.03 | C[C@H](NC(=O)CN1Cc2c(ccc(F)c2F)NC1=O)c1ccncc1F [Compound B100]
31 | 1.059 | 0.5759 | 0.15 | O=C(CN1Cc2c(ccc(F)c2F)NC1=O)N[C@@H]1COc2c(F)cc(F)cc2C1 [Compound B101]
32 | 7.621 | 6.262 | 0.10 | O=C(CN1Cc2c(ccc(F)c2F)NC1=O)N[C@H]1COc2c(F)cc(F)cc2C1 [Compound B102]
33 | 0.426 | 1.132 | 0.03 | C[C@@H](NC(=O)CN1Cc2c(ccc(F)c2F)NC1=O)c1c(F)cncc1F [Compound B103]
34 | 100 | 100 | 2.79 | C[C@H](NC(=O)CN1Cc2c(ccc(F)c2F)NC1=O)c1c(F)cncc1F [Compound B104]
35 | 4.205 | 6.381 | 0.11 | C[C@@H](NC(=O)CN1Cc2c(ccc(F)c2F)NC1=O)c1ncc(C#N)cn1 [Compound B105]
36 | 0.3028 | 0.4765 | 0.09 | C[C@H](NC(=O)CN1Cc2c(ccc(F)c2F)NC1=O)c1ncc(C#N)cn1 [Compound B106]
37 | 100 | 100 | 100.00 | C[C@@H](NC(=O)CN1Cc2c(ccc(F)c2F)NC1=O)c1ccc(C(F)(F)F)cn1 [Compound B107]
38 | 1.4 | 3.587 | 0.46 | C[C@H](NC(=O)CN1Cc2c(ccc(F)c2F)NC1=O)c1ccc(C(F)(F)F)cn1 [Compound B108]
39 | 13.9 | 100 | 12.19 | C[C@@H](NC(=O)CN1Cc2c(ccc(F)c2F)NC1=O)c1ncncc1F [Compound B109]
40 | 0.0558 | 0.5595 | 0.04 | C[C@H](NC(=O)CN1Cc2c(ccc(F)c2F)NC1=O)c1ncncc1F [Compound B110]
41 | 0.564 | 100 | 100.00 | C[C@@H](NC(=O)CN1Cc2c(ccc(F)c2C#N)NC1=O)c1ccc(C#N)cn1 [Compound B111]
42 | 0.079 | 2.318 | 1.51 | C[C@H](NC(=O)CN1Cc2c(ccc(F)c2C#N)NC1=O)c1ccc(C#N)cn1 [Compound B112]
43 | 0.09089 | 0.233 | 0.16 | C[C@@H](NC(=O)CN1Cc2c(F)cccc2NC1=O)c1ccc(C#N)cc1F [Compound B113]
